Test results published in patent US10689383B2, “Optionally fused heterocyclyl-substituted derivatives of pyrimidine useful for the treatment of inflammatory, metabolic, oncologic and autoimmune diseases” (NUEVOLUTION A/S, priority 2014, dated 2020).
pIC50: −log10 of the molar value.

Columns and labels:
[1] = molecular target: T1, yeast Gal4-DNA binding domain fused to the ligand binding domain of human RORγ (Homo sapiens, UniProt P51449); assay: RORγ Reporter Assay (Gal4); format: cell-based; details: values given as lower bounds of ranges; for Gal4 activity range @ 1 μM (% inhibition): RORγ Reporter Assay (Gal4) at 1 μM; for Gal4 activity range @ 0.1 μM (% inhibition): RORγ Reporter Assay (Gal4) at 0.1 μM
T1 construct: host or cells: HEK293t
T1 sequence (P51449 269-508 limits assumed): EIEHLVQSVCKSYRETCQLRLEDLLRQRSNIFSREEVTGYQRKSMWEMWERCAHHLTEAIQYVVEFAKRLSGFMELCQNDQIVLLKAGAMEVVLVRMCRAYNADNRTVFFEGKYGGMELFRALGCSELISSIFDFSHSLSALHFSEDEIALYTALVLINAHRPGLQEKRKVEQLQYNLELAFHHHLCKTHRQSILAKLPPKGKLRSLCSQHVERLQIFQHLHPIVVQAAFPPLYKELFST
Method: The activity of the compounds was evaluated using a Fluorescence Polarization (FP) Assay and, in most cases, a Th17 Assay and/or RORγ Reporter assay (also referred to as Gal4 assay). The FP assay is an in vitro assay monitoring binding within the ligand binding pocket. The RORγ and the Th17 assays are both cell-based assays monitoring functional activity of the compound assayed.
Cell-based RORγ functional assays were performed using a commercially available assay product (INDIGO Biosciences, State College, Pa., USA; product # IB04001). The RORγ reporter cells are HEK293t cells transfected with one vector that provides high level constitutive expression of a hybrid protein comprised of the yeast Gal4-DNA binding domain fused to the ligand binding domain of human RORγ, and a second vector comprising the firefly luciferase cDNA functionally linked to the upstream activation sequence (UAS) of yeast Gal4. A suspension of RORγ Reporter Cells was prepared using the protocol and culture medium provided in the kit product, and 100 μl of the Reporter Cell suspension was then dispensed into wells of a white, collagen-treated, 96-well assay plate. Concentrated stocks of test compounds were prepared in DMSO, then further diluted using media provided in the kit to generate ‘2×-concentration’ treatment media. 100 μl of medium for each respective treatment concentration dispensed into triplicate assay wells, thereby combining with the reporter cells. All media formulations contained 10% charcoal stripped Fetal Bovine Serum, but are otherwise proprietary to INDIGO Biosciences. Final treatment concentrations for each test compound were 1,000 nM and 100 nM, each with 0.1% residual DMSO. Separate control treatments were media supplemented with vehicle only (0.1% DMSO) to determine the constitutive level of RORγ activity in the reporter cells, and the reference inverse-agonist ursolic acid (f.c. 6,000 nM to 8.2 nM in 3-fold decrements) to establish a positive control inverse-agonist dose response. Assay plates were placed in a 37° C., 5% CO2, 85% humidity incubator for 24 hour. Treatment media were then discarded, 100 μl of luciferase detection reagent was added to each well, and relative light units (RLUs) were quantified from each assay well using a plate reading luminometer. Values of average RLU+/−standard deviation were computed for all treatment sets, followed by the calculations of fold-reduction: [Average RLUVehicle/Average RLUTest Cmpd]. Percent-reduction of RORγ activity in response to respective test compound treatments was calculated: [100*(1−[Ave RLUTest Cmpd/Ave RLUVehicle)] where the theoretical minimum reduction (0% reduction) derives from Vehicle treatment only, no treatment compound.

[2] = molecular target: T2, human RORγt (Ligand Binding Domain) (Homo sapiens, UniProt P51449); assay: Fluorescence Polarization (FP) Assay; details: Fluorescence Polarization (FP) Assay; values given as upper bounds of activity ranges; read-out: FP activity range
T2 construct: purchased Crelux (Planegg, Germany) batch no PC5032-1
T2 sequence (P51449 269-508 limits assumed): T1 sequence (P51449 269-508 limits assumed)
How it was run: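 In vitro FP binding assay monitoring ligand binding within the ligand binding pocket. Probe is a TAMRA-labelled RORγt ligand (MW 910 g/mole); DMSO served as negative control.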

Gal4 activity range @ 1 μM (% inhibition) [1] [% inhibition] | pIC50 [2] | Gal4 activity range @ 0.1 μM (% inhibition) [1] [% inhibition] | Structure (SMILES)
>20 | > 6.30 | – | COc1cc(C(F)(F)F)ccc1C1CCCN1c1ncnc(N[C@H](CC(C)(C)C)C(N)=O)c1F (stereo partly drawn) [Example 65, (2R)-2-[[5-fluoro-6-[2-[2-methoxy-4-(trifluoromethyl)phenyl]pyrrolidin-1-yl]pyrimidin-4-yl]amino]-4,4-dimethyl-pentanamide]
>50 | > 5.70 | – | Cc1ccc(CNc2nccc(N3CCCC3c3ccc(C(F)(F)F)cc3)c2F)cn1 (stereo not shown) [Example 66, 3-fluoro-N-[(6-methyl-3-pyridyl)methyl]-4-[2-[4-(trifluoromethyl)phenyl]pyrrolidin-1-yl]pyridin-2-amine]
>80 | > 5.70 | – | CC(C)(C)C[C@@H](Nc1ncnc(N2CCOCC2c2ccc(OC(F)(F)F)cc2)c1F)C(N)=O (stereo partly drawn) [Example 68, (2R)-2-[[5-fluoro-6-[3-[4-(trifluoromethoxy)phenyl]morpholin-4-yl]pyrimidin-4-yl]amino]-4,4-dimethyl-pentanamide]
>50 | > 6.00 | – | COc1ccc(Cn2ccc3c(N4CCCC4c4ccc(C(F)(F)F)cc4)ncnc32)cc1OC (stereo not shown) [Example 69, 7-[(3,4-dimethoxyphenyl)methyl]-4-[2-[4-(trifluoromethyl)phenyl]pyrrolidin-1-yl]pyrrolo[2,3-d]pyrimidine]
>80 | > 6.00 | – | CC(C)(C)C[C@@H](Nc1ncnc(N2CCCC2c2ccc(C(F)(F)F)c(F)c2)c1F)C(N)=O (stereo partly drawn) [Example 72, (2R)-2-[[5-fluoro-6-[2-[3-fluoro-4-(trifluoromethyl)phenyl]pyrrolidin-1-yl]pyrimidin-4-yl]amino]-4,4-dimethyl-pentanamide]
>20 | > 5.70 | >0 | Cc1ccc(COc2ncnc(N3CCCC3c3ccc(C(F)(F)F)c(F)c3)c2F)cn1 (stereo not shown) [Example 73, 5-fluoro-4-[2-[3-fluoro-4-(trifluoromethyl)phenyl]pyrrolidin-1-yl]-6-[(6-methyl-3-pyridyl)methoxy]pyrimidine]
>80 | > 5.70 | – | Cc1ccc(COc2ncnc(N3CCCC3c3ccc(C(F)(F)F)cc3)c2F)cn1 (stereo not shown) [Example 74, 5-fluoro-4-[(6-methyl-3-pyridyl)methoxy]-6-[2-[4-(trifluoromethyl)phenyl]pyrrolidin-1-yl]pyrimidine]
>50 | > 6.30 | >0 | CC1CCC(CNc2ncnc(N3CCCC3c3ccc(C(F)(F)F)cc3)c2F)CC1 (stereo not shown) [Example 93, 5-fluoro-N-[(4-methylcyclohexyl)methyl]-6-[2-[4-(trifluoromethyl)phenyl]pyrrolidin-1-yl]pyrimidin-4-amine]
>80 | > 6.00 | >20 | CS(=O)(=O)Cc1ccc(CNc2ncnc(N3CCCC3c3ccc(C(F)(F)F)cc3)c2F)cc1 (stereo not shown) [Example 95, 5-fluoro-N-[[4-(methylsulfonylmethyl)phenyl]methyl]-6-[2-[4-(trifluoromethyl)phenyl]pyrrolidin-1-yl]pyrimidin-4-amine]
>80 | > 6.00 | >20 | Cc1ccc(CNc2ncnc(N3CCCC3c3ccc(OC(F)(F)F)cc3)c2F)cn1 (stereo not shown) [Example 97, 5-fluoro-N-[(6-methyl-3-pyridyl)methyl]-6-[2-[4-(trifluoromethoxy)phenyl]pyrrolidin-1-yl]pyrimidin-4-amine]
>80 | > 6.00 | >20 | CC(C)(O)Cc1ccc(CNc2ncnc(N3CCCC3c3ccc(C(F)(F)F)cc3)c2F)cc1 (stereo not shown) [Example 98, 1-[4-[[[5-fluoro-6-[2-[4-(trifluoromethyl)phenyl]pyrrolidin-1-yl]pyrimidin-4-yl]amino]methyl]phenyl]-2-methyl-propan-2-ol]
>20 | > 5.70 | – | Oc1ccc(CNc2ncnc(N3CCCC3c3ccc(C(F)(F)F)cc3)c2F)cn1 (stereo not shown) [Example 100, 5-[[[5-fluoro-6-[2-[4-(trifluoromethyl)phenyl]pyrrolidin-1-yl]pyrimidin-4-yl]amino]methyl]pyridin-2-ol]
>20 | > 5.00 | – | Cn1cc(CNc2ncnc(N3CCCC3c3ccc(C(F)(F)F)cc3)c2F)cn1 (stereo not shown) [Example 106, 5-fluoro-N-[(1-methylpyrazo1-4-yl)methyl]-6-[2-[4-(trifluoromethyl)phenyl]pyrrolidin-1-yl]pyrimidin-4-amine]
>0 | > 5.00 | – | Cc1ccc(CNc2ncnc(N3CCCC3c3ccc(C(F)(F)F)cc3)c2F)o1 (stereo not shown) [Example 107, 5-fluoro-N-[(5-methyl-2-furyl)methyl]-6-[2-[4-(trifluoromethyl)phenyl]pyrrolidin-1-yl]pyrimidin-4-amine]
>20 | > 5.70 | – | CN1CC(CNc2ncnc(N3CCCC3c3ccc(C(F)(F)F)cc3)c2F)CC1=O (stereo not shown) [Example 109, 4-[[[5-fluoro-6-[2-[4-(trifluoromethyl)phenyl]pyrrolidin-1-yl]pyrimidin-4-yl]amino]methyl]-1-methyl-pyrrolidin-2-one]
>0 | > 5.00 | – | CN(C)C(=O)C1CCC(CNc2ncnc(N3CCCC3c3ccc(C(F)(F)F)cc3)c2F)O1 (stereo not shown) [Example 110, 5-[[[5-fluoro-6-[2-[4-(trifluoromethyl)phenyl]pyrrolidin-1-yl]pyrimidin-4-yl]amino]methyl]-N,N-dimethyl-tetrahydrofuran-2-carboxamide]
>80 | > 6.30 | >50 | COC1(CNc2ncnc(N3CCCC3c3ccc(C(F)(F)F)cc3)c2F)CCOCC1 (stereo not shown) [Example 111, 5-fluoro-N-[(4-methoxytetrahydropyran-4-yl)methyl]-6-[2-[4-(trifluoromethyl)phenyl]pyrrolidin-1-yl]pyrimidin-4-amine]
>80 | > 6.30 | >50 | COc1cc(CNc2ncnc(N3CCCC3c3ccc(C(F)(F)F)cc3)c2F)ccn1 (stereo not shown) [Example 113, 5-fluoro-N-[(2-methoxy-4-pyridyl)methyl]-6-[2-[4-(trifluoromethyl)phenyl]pyrrolidin-1-yl]pyrimidin-4-amine]
>80 | > 6.00 | >20 | COc1ccc(CNc2ncnc(N3CCCC3c3ccc(C(F)(F)F)cc3)c2F)cn1 (stereo not shown) [Example 114, 5-fluoro-N-[(6-methoxy-3-pyridyl)methyl]-6-[2-[4-(trifluoromethyl)phenyl]pyrrolidin-1-yl]pyrimidin-4-amine]

Structure (SMILES) | Gal4 activity range @ 1 μM (% inhibition) [1] [% inhibition] | pIC50 [2] | Gal4 activity range @ 0.1 μM (% inhibition) [1] [% inhibition]
COc1ccc(C2CCCN2c2ncnc(NCc3ccc(C)nc3)c2F)cc1 (stereo not shown) [Example 90, 5-fluoro-6-[2-(4-methoxyphenyl)pyrrolidin-1-yl]-N-[(6-methyl-3-pyridyl)methyl]pyrimidin-4-amine] | >20 | > 6.00 | >0
